Laboratory results taken from US20130078718A1, “CONVERSION OF VASCULAR ENDOTHELIAL CELLS INTO MULTIPOTENT STEM-LIKE CELLS” (PRESIDENT AND FELLOWS OF HARVARD COLLEGE, priority 2010, published 2013).
“Also recorded” adds a separate entry of the source.

How the values were obtained:
Smad2 and Smad5 = assay: Smad phosphorylation by immunoblotting; assay type: cell-based, human; settings: for Smad5 phosphorylation: 10 ng/mL, 1 hour; for phosphorylation of Smad2 and Smad5 (immunoblotting): HUVECs, 10 ng ml−1, 1 h
Protocol: (§1) Human umbilical vein endothelial cells (HUVEC) and human cutaneous microvascular endothelial cells (HCMEC) were provided by J. Bischoff (Children's Hospital Boston) and isolated as previously described^35. […] Cells were grown in culture using EGM-2 medium (Cambrex), containing 10% FBS and 1% Penicillin/Streptomycin, followed by human endothelial serum free medium (Gibco) 24 hours prior to all experimental conditions. Bone marrow derived mesenchymal stem cells (ScienCell Research Laboratories) were grown in mesenchymal stem cell medium (ScienCell Research Laboratories). Human corneal fibroblasts, from a stock initially provided by E. Hay (Harvard Medical School), were grown in RPMI medium, containing 10% FBS and 1% Penicillin/Streptomycin. Primary human osteoblasts, chondrocytes, and adipocytes and their respective growth media were obtained from Cell Applications Inc. Recombinant TGF-β2 and BMP4 proteins (R&D Systems) were added to the serum free culture medium for all relevant experiments at a concentration of 10 ng/mL. Cells were treated for 15 minutes to assess ALK2 phosphorylation, 1 hour to measure Smad5 phosphorylation, or 48 hours to induce EndMT. All experiments for this study were performed at minimum in triplicate.
(§2) Immunoassays were performed using the following antibodies at concentrations (and using protocols) recommended by the respective manufacturers: FSP-1 (H00006275-M01; Stressgen), ALK2 (sc-5671), Phospho-tyrosine (sc-7020), VE-cadherin (sc-6458), TIE2 (sc-324, sc-9026), STRO-1 (sc-47733), CD44 (sc-71220), CD90 (sc-9163), Osteocalcin (sc-74495, sc-23790), SOX9 (sc-20095), COL2A1 (sc-59958, sc-52658), PPARγ2 (sc-22022; Santa Cruz Biotechnology), vWF (ab68545; Abcam); His (A00174; GenScript); α-SMA (A5228), β-actin (A1978; Sigma-Aldrich). Samples were run with Criterion precast SDS-PAGE Gels (Bio-Rad). HRP-conjugated IgG TrueBlot reagents (18-8814, 18-8816, 18-8817; eBioscience) were used at a dilution of 1:1000. TrueBlot IgG beads (eBioscience) were used for immunoprecipitation experiments. Alexa Fluor secondary antibodies (Invitrogen) were used at a dilution of 1:200. Images were acquired using a Nikon 80i fluorescence microscope.
Human umbilical vein endothelial cells (HUVEC) and human cutaneous microvascular endothelial cells (HCMEC) isolated as previously described (35). […] Cells were grown in culture using EGM-2 medium (Cambrex), containing 10% FBS and 1% Penicillin/Streptomycin, followed by human endothelial serum free medium (Gibco) 24 h prior to all experimental conditions. Bone marrow derived mesenchymal stem cells (ScienCell Research Laboratories) were grown in mesenchymal stem cell medium (ScienCell Research Laboratories). Bone marrow derived hematopoietic stem cells (Lonza) were grown in HPGM medium (Lonza). Human corneal fibroblasts, from a stock provided by Dr. Elizabeth Hay (Harvard Medical School), were grown in RPMI medium, containing 10% FBS and 1% Penicillin/Streptomycin. Primary human osteoblasts, chondrocytes, and adipocytes and their respective growth media were obtained from Cell Applications, Inc. Recombinant TGF-β2, BMP4, and BMP7 proteins (R&D Systems) were added to the serum free culture medium for all relevant experiments at a concentration of 10 ng ml^−1. Recombinant VEGF (R&D Systems) was added to cultures at a concentration of 25 ng ml^−1. Dorsomorphin (Sigma-Aldrich) was added to cultures at a concentration of 5 μM.

HUVEC and HCMEC = assay: Mesenchymal stem cell marker expression in treated endothelial cells; assay type: cell-based, human; settings: 10 ng/mL, 48 hours; for expression of mesenchymal stem cell genes CD10, CD13, CD44, CD73, CD90, CD120a, CD124 (real-time quantitative PCR): compared to control cells
Protocol: as §1, §2
(§3) Endothelial cells were stained in suspension using antibodies against TIE2, FSP-1, STRO-1, and His (described above) and the protocols provided by their respective manufacturer. Flow cytometry was performed at the Harvard Medical School, Department of Pathology flow cytometry core facility using a FACSDCalibur (BD Biosciences) cell sorter isolating 30,000 cells per sample.
(§4) RNA extractions were performed using the RNeasy Mini kit (Qiagen) and protocol. RNA samples were submitted to a core facility (Biopolymers Facility, Department of Genetics, Harvard Medical School) where real-time PCR experiments were conducted using the Syber Green PCR system (ABI) on an ABI 7500 cycler, with 40 cycles per sample. Cycling temperatures were as follows: denaturing 95° C.; annealing 60° C.; extension, 70° C. The following primers (Integrated DNA Technologies) were used: […]
(§5) Human umbilical vein endothelial cells (HUVEC) and human cutaneous microvascular endothelial cells (HCMEC) isolated as previously described (35). […] Cells were grown in culture using EGM-2 medium (Cambrex), containing 10% FBS and 1% Penicillin/Streptomycin, followed by human endothelial serum free medium (Gibco) 24 h prior to all experimental conditions.

[1] = system: Human umbilical vein endothelial cells (HUVECs) and human cutaneous microvascular endothelial cells (HCMECs); assay: Endothelial-mesenchymal transition (EndMT) in endothelial cells: morphology, marker expression by immunoblotting, flow cytometry, real-time PCR, ELISA; assay type: cell-based; settings: for FSP-1, α-SMA, and N-cadherin levels (immunoblotting) / VE-cadherin, CD31, and vWF levels (immunoblotting): 10 ng ml−1, 48 h; for EndMT-associated transcription factors Snail, Slug, ZEB-1, SIP-1, LEF-1, Twist (ELISA): 10 ng ml−1, compared to control cells; for FSP-1 and α-SMA levels (immunoblotting) / TIE-2 expression levels (immunoblotting) / VE-cadherin levels (immunoblotting) / co-staining for endothelial marker TIE2 and mesenchymal marker FSP-1 (fluorescence microscopy or flow cytometry) / expression of genes associated with EndMT (FSP-1, α-SMA, N-cadherin, fibronectin, Snail, Slug, ZEB-1, SIP-1, LEF-1, Twist), real-time quantitative PCR / cell morphology (DIC imaging): 10 ng/mL, 48 hours; for expression of genes associated with EndMT (FSP-1, α-SMA, N-cadherin, fibronectin, Snail, Slug, ZEB-1, SIP-1, LEF-1, Twist), real-time quantitative PCR: compared to control cells; for cell morphology (DIC imaging): serum free medium
Protocol: as §1, §2, §3, §4, §5

| Substance | Smad5 phosphorylation (Smad2 and Smad5) | phosphorylation of Smad2 and Smad5 (immunoblotting) (Smad2 and Smad5) | STRO-1 and other mesenchymal stem cell markers (immunoblotting) (HUVEC and HCMEC) | co-expression of TIE2 and mesenchymal stem cell marker STRO-1 (immunofluorescence microscopy or flow cytometry) (HUVEC and HCMEC) | expression of mesenchymal stem cell genes CD10, CD13, CD44, CD73, CD90, CD120a, CD124 (real-time quantitative PCR) (HUVEC and HCMEC) | effect on EndMT (stimulation) [1] | FSP-1, α-SMA, and N-cadherin levels (immunoblotting) [1] | VE-cadherin, CD31, and vWF levels (immunoblotting) [1] | EndMT-associated transcription factors Snail, Slug, ZEB-1, SIP-1, LEF-1, Twist (ELISA) [1] | FSP-1 and α-SMA levels (immunoblotting) [1] | TIE-2 expression levels (immunoblotting) [1] | VE-cadherin levels (immunoblotting) [1] | co-staining for endothelial marker TIE2 and mesenchymal marker FSP-1 (fluorescence microscopy or flow cytometry) [1] | expression of genes associated with EndMT (FSP-1, α-SMA, N-cadherin, fibronectin, Snail, Slug, ZEB-1, SIP-1, LEF-1, Twist), real-time quantitative PCR [1] | cell morphology (DIC imaging) [1] | VE-cadherin, FSP-1, CD44, CD90 expression in clonal populations (multiplex ELISA) ([1]; three clonal populations of HUVEC and HCMEC, 48 h) |
| --- | --- | --- | --- | --- | --- | --- | --- | --- | --- | --- | --- | --- | --- | --- | --- | --- |
| BMP4: Recombinant BMP4 protein (R&D Systems), ALK2 activating ligand, used at 10 ng/mL | phosphorylated | promoted phosphorylation of both Smad2 and Smad5 | strongly expressed | strong co-expression; also recorded: massive co-expression | greatly increased | stimulators of EndMT; also recorded: stimulate EndMT | increased | decreased | much higher | increased | remained unchanged; also recorded: remain constant | significantly decreased | staining for both | much higher | distinct change from cobblestone-like endothelial cell morphology to fibroblast-like morphology | – |
| TGF-β2: Recombinant TGF-β2 protein (R&D Systems), ALK2 activating ligand, used at 10 ng/mL | phosphorylated | promoted phosphorylation of both Smad2 and Smad5 | strongly expressed | strong co-expression; also recorded: massive co-expression | greatly increased | stimulators of EndMT; also recorded: stimulate EndMT | increased | decreased | much higher | increased | remained unchanged; also recorded: remain constant | significantly decreased | staining for both | much higher | distinct change from cobblestone-like endothelial cell morphology to fibroblast-like morphology | decreased expression of VE-cadherin and increased expression of FSP-1, CD44, and CD90 |
